# Patent US9278981B2, “Compounds and compositions for inhibiting the activity of ABL1, ABL2 and BCR-ABL1” (Novartis AG, priority 2012, dated 2016)
# Assays:
# [1] = biological target: T1, ABL1 (64-515) (Homo sapiens (Human), UniProt P00519); test: Caliper ABL1 (64-515) assay (microfluidic mobility shift); type: biochemical
# [2] = biological target: T1, ABL1 (64-515); test: Radio ABL1 (64-515) assay (radiometric filter-binding); type: biochemical
# T1 sequence (P00519 64-515): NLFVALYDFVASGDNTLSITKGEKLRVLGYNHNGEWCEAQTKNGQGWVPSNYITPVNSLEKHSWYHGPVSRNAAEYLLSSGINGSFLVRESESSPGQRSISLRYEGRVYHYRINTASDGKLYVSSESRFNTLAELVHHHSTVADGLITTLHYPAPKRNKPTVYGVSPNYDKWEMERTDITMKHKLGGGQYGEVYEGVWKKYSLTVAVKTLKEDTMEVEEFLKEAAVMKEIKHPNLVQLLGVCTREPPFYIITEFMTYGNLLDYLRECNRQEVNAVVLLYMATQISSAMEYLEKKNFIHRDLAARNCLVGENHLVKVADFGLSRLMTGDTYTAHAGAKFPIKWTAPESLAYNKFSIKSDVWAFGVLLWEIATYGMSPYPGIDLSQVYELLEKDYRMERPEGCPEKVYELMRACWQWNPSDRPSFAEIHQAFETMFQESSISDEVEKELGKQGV
IC50 [1] [nM],IC50 [2] [nM],Compound
1.5,< 3,"CC1(O)CN(c2ncc(C(=O)Nc3ccc(OC(F)(F)F)cc3)cc2-c2cncc(F)c2)C1 [Example 132, 5′-Fluoro-2-(3-hydroxy-3-methylazetidin-1-yl)-N-(4-(trifluoromethoxy)phenyl)-[3,3′-bipyridine]-5-carboxamide]"
0.6,< 3,"O=C(Nc1ccc(OC(F)(F)F)cc1)c1cnc(N2CC[C@@H](O)C2)c(-c2cccnc2)c1 [Example 39, (R)-2-(3-Hydroxypyrrolidin-1-yl)-N-(4-(trifluoromethoxy)phenyl)-[3,3′-bipyridine]-5-carboxamide]"
0.6,4,"CCN(CCO)c1ncc(C(=O)Nc2ccc(OC(F)(F)Cl)cc2)cc1-c1cncnc1 [Example 182, N-(4-(Chlorodifluoromethoxy)phenyl)-6-(ethyl(2-hydroxyethyl)amino)-5-(pyrimidin-5-yl)nicotinamide]"
1.1,2.1,N[C@@H]1CCCN(c2ncc(C(=O)Nc3ccc(OC(F)(F)Cl)cc3)cc2-c2cncnc2)C1 [Example 255]
0.6,6,"O=C(Nc1ccc(OC(F)(F)F)cc1)c1cnc(N2CC(CO)C2)c(-c2cccnc2)c1 [Example 137, 2-(3-(Hydroxymethyl)azetidin-1-yl)-N-(4-(trifluoromethoxy)phenyl)-[3,3′-bipyridine]-5-carboxamide]"
1.3,2,"CN(CCO)c1ncc(C(=O)Nc2ccc(SC(F)(F)F)cc2)cc1-c1cncnc1 [Example 192, 6-((2-Hydroxyethyl)(methyl)amino)-5-(pyrimidin-5-yl)-N-(4-((trifluoromethyl)thio)phenyl)nicotinamide]"
1.4,3,"CN(C)[C@H]1CN(c2ncc(C(=O)Nc3ccc(OC(F)(F)F)cc3)cc2-c2cncc(F)c2)C[C@@H]1O [Example 236, 2-((3S,4S)-3-(Dimethylamino)-4-hydroxypyrrolidin-1-yl)-5′-fluoro-N-(4-(trifluoromethoxy)phenyl)-[3,3′-bipyridine]-5-carboxamide]"
5,11,"CN(CCO)c1ncc(C(=O)Nc2ccc(OC(F)(F)F)cc2)cc1-c1cncc(C#N)c1 [Example 155, 5′-Cyano-2-((2-hydroxyethyl)(methyl)amino)-N-(4-(trifluoromethoxy)phenyl)-[3,3′-bipyridine]-5-carboxamide]"
0.9,1,"N#Cc1cncc(-c2cc(C(=O)Nc3ccc(OC(F)(F)F)c(F)c3)cnc2N2CC[C@H](CO)C2)c1 [Example 203, (S)-5′-Cyano-N-(3-fluoro-4-(trifluoromethoxy)phenyl)-2-(3-(hydroxymethyl)pyrrolidin-1-yl)-[3,3′-bipyridine]-5-carboxamide]"
< 0.13,5.1,NC1CN(c2ncc(C(=O)Nc3ccc(OC(F)(F)Cl)cc3)cc2-c2cncnc2)C1 [Example 259]
4.5,6,"O=C(Nc1ccc(OC(F)(F)F)cc1)c1cnc(N2CC[C@@H](O)C2)c(-c2cc(F)nc(F)c2)c1 [Example 242, (R)-2′,6′-Difluoro-2-(3-hydroxypyrrolidin-1-yl)-N-(4-(trifluoromethoxy)phenyl)-[3,4′-bipyridine]-5-carboxamide]"
0.9,5,"N#Cc1cncc(-c2cc(C(=O)Nc3ccc(OC(F)(F)F)cc3)cnc2N2CC[C@@H](O)C2)c1 [Example 54, (R)-5′-Cyano-2-(3-hydroxypyrrolidin-1-yl)-N-(4-(trifluoromethoxy)phenyl)-[3,3′-bipyridine]-5-carboxamide]"
0.8,2,"N#Cc1ccncc1-c1cc(C(=O)Nc2ccc(OC(F)(F)Cl)cc2)cnc1N1C[C@H](O)[C@@H](O)C1 [Example 290, N-(4-(Chlorodifluoromethoxy)phenyl)-4′-cyano-2-((3S,4S)-3,4-dihydroxypyrrolidin-1-yl)-[3,3′-bipyridine]-5-carboxamide]"
3.5,5,"O=C(Nc1ccc(OC(F)(F)F)cc1)c1cnc(N2CC[C@@H](O)C2)c(-c2cc(F)cnc2F)c1 [Example 49, (R)-2′,5′-Difluoro-2-(3-hydroxypyrrolidin-1-yl)-N-(4-(trifluoromethoxy)phenyl)-[3,3′-bipyridine]-5-carboxamide]"
2.3,6,"O=C(Nc1ccc(OC(F)(F)C(F)(F)F)cc1)c1cnc(N2CC[C@@H](O)C2)c(-c2cncnc2)c1 [Example 220, (R)-6-(3-Hydroxypyrrolidin-1-yl)-N-(4-(perfluoroethoxy)phenyl)-5-(pyrimidin-5-yl)nicotinamide]"
1.7,2,"CO[C@H]1CN(c2ncc(C(=O)Nc3ccc(OC(F)(F)F)cc3)cc2-c2cncc(F)c2)C[C@@H]1N (relative stereo) [Example 286, 2-(trans-3-Amino-4-methoxypyrrolidin-1-yl)-5′-fluoro-N-(4-(trifluoromethoxy)phenyl)-[3,3′-bipyridine]-5-carboxamide]"

IC50 [1] [nM],IC50 [2] [nM],Compound
1.9,< 3,O=C(Nc1ccc(OC(F)(F)F)cc1)c1cnc(N2CC(O)C2)c(-c2cncnc2)c1 [Example 25]
0.9,< 3,"Nc1ncc(-c2cc(C(=O)Nc3ccc(OC(F)(F)F)cc3)cnc2N2CCCC2)cn1 [Example 68, 5-(2-Aminopyrimidin-5-yl)-6-(pyrrolidin-1-yl)-N-(4-(trifluoromethoxy)phenyl)nicotinamide]"
1.3,8.4,"Cc1ccc(-c2cc(C(=O)Nc3ccc(OC(F)(F)F)cc3)cnc2N2CC(C)(O)C2)cn1 [Example 131, 2-(3-Hydroxy-3-methylazetidin-1-yl)-6′-methyl-N-(4-(trifluoromethoxy)phenyl)-[3,3′-bipyridine]-5-carboxamide]"
< 0.13,3,"CCN(CCO)c1ncc(C(=O)Nc2ccc(SC(F)(F)F)cc2)cc1-c1cncnc1 [Example 195, 6-(Ethyl(2-hydroxyethyl)amino)-5-(pyrimidin-5-yl)-N-(4-((trifluoromethyl)thio)phenyl)nicotinamide]"
2.6,2,"NC1CN(c2ncc(C(=O)Nc3ccc(OC(F)(F)F)cc3)cc2-c2cncc(F)c2)C1 [Example 238, 2-(3-Aminoazetidin-1-yl)-5′-fluoro-N-(4-(trifluoromethoxy)phenyl)-[3,3′-bipyridine]-5-carboxamide]"
1.1,3,"O=C(Nc1ccc(OC(F)(F)F)cc1)c1cnc(N2CC[C@H](CO)C2)c(-c2ccc(CF)nc2)c1 [Example 84, (S)-6′-(Fluoromethyl)-2-(3-(hydroxymethyl)pyrrolidin-1-yl)-N-(4-(trifluoromethoxy)phenyl)-[3,3′-bipyridine]-5-carboxamide]"
0.8,6,"CCN(CCO)c1ncc(C(=O)Nc2ccc(OC(F)(F)Cl)cc2)cc1-c1cncc(C#N)c1 [Example 184, N-(4-(Chlorodifluoromethoxy)phenyl)-5′-cyano-2-(ethyl(2-hydroxyethyl)amino)-[3,3′-bipyridine]-5-carboxamide]"
< 0.13,4,"O=C(Nc1ccc(OC(F)(F)F)cc1)c1cnc(N2CC[C@H](CO)C2)c(-c2ccc(Cl)nc2)c1 [Example 88, (S)-6′-Chloro-2-(3-(hydroxymethyl)pyrrolidin-1-yl)-N-(4-(trifluoromethoxy)phenyl)-[3,3′-bipyridine]-5-carboxamide]"
0.6,< 3,"Cc1ccc(-c2cc(C(=O)Nc3ccc(OC(F)(F)F)cc3)cnc2N2CC[C@H](CO)C2)cn1 [Example 82, (S)-2-(3-(Hydroxymethyl)pyrrolidin-1-yl)-6′-methyl-N-(4-(trifluoromethoxy)phenyl)-[3,3′-bipyridine]-5-carboxamide]"
0.5,5.9,"O=C(Nc1ccc(SC(F)(F)F)cc1)c1cnc(N2CC[C@H](CO)C2)c(-c2cncc(F)c2)c1 [Example 190, (S)-5′-Fluoro-2-(3-(hydroxymethyl)pyrrolidin-1-yl)-N-(4-((trifluoromethyl)thio)phenyl)-[3,3′-bipyridine]-5-carboxamide]"
1.1,3,"N#Cc1cncc(-c2cc(C(=O)Nc3ccc(SC(F)(F)F)c(F)c3)cnc2N2CC[C@@H](O)C2)c1 [Example 207, (R)-5′-Cyano-N-(3-fluoro-4-((trifluoromethyl)thio)phenyl)-2-(3-hydroxypyrrolidin-1-yl)-[3,3′-bipyridine]-5-carboxamide]"
0.8,4,"N#Cc1cncc(-c2cc(C(=O)Nc3ccc(C(F)(F)C(F)(F)F)cc3)cnc2N2CC[C@@H](O)C2)c1 [Example 210, (R)-5′-Cyano-2-(3-hydroxypyrrolidin-1-yl)-N-(4-(perfluoroethyl)phenyl)-[3,3′-bipyridine]-5-carboxamide]"
0.5,4,"O=C(Nc1ccc(OC(F)(F)F)cc1)c1cnc(N2CC[C@@H](O)C2)c(-c2cc(F)cc(F)c2)c1 [Example 61, (R)-5-(3,5-Difluorophenyl)-6-(3-hydroxypyrrolidin-1-yl)-N-(4-(trifluoromethoxy)phenyl)nicotinamide]"
0.6,5,"O=C(Nc1ccc(OC(F)(F)F)cc1)c1cnc(N2CC(CO)C2)c(-c2cncc(F)c2)c1 [Example 139, 5′-Fluoro-2-(3-(hydroxymethyl)azetidin-1-yl)-N-(4-(trifluoromethoxy)phenyl)-[3,3′-bipyridine]-5-carboxamide]"
2.8,13,"O=C(Nc1ccc(OC(F)(F)F)cc1)c1ccc(N2C[C@H](O)[C@@H](O)C2)c(-c2cccnc2)c1 [Example 8, 4-((3S,4S)-3,4-Dihydroxypyrrolidin-1-yl)-3-(pyridin-3-yl)-N-(4-(trifluoromethoxy)phenyl)benzamide]"
0.7,3.4,"O=C(Nc1ccc(OC(F)(F)F)c(F)c1)c1cnc(N2CC[C@H](CO)C2)c(-c2cncc(F)c2)c1 [Example 202, (S)-5′-Fluoro-N-(3-fluoro-4-(trifluoromethoxy)phenyl)-2-(3-(hydroxymethyl)pyrrolidin-1-yl)-[3,3′-bipyridine]-5-carboxamide]"
